Assay results as given in patent US20260184707A1, “PHARMACEUTICAL COMPOUNDS FOR THE TREATMENT OF COMPLEMENT MEDIATED DISORDERS” (ALEXION PHARMACEUTICALS, INC., priority 2022, published 2026).
One block for each molecule: values may come before it.

Molecular target: T1, Human complement C1s enzyme (Homo sapiens, UniProt P09871)
T1 construct: purified from human serum, Complement Technology, Inc; purchased Complement Technology, Inc; host or cells: human serum (plasma-derived native protein)
T1 sequence (P09871 438-688 limits assumed): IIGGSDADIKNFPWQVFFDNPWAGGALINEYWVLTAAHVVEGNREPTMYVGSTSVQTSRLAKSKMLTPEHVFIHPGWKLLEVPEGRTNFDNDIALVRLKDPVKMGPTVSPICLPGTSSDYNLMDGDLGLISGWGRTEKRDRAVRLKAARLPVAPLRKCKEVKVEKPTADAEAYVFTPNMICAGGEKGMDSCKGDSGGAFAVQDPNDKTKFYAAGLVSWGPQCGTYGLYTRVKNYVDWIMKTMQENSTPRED
T1 sequence (P09871 16-437 partner limits assumed): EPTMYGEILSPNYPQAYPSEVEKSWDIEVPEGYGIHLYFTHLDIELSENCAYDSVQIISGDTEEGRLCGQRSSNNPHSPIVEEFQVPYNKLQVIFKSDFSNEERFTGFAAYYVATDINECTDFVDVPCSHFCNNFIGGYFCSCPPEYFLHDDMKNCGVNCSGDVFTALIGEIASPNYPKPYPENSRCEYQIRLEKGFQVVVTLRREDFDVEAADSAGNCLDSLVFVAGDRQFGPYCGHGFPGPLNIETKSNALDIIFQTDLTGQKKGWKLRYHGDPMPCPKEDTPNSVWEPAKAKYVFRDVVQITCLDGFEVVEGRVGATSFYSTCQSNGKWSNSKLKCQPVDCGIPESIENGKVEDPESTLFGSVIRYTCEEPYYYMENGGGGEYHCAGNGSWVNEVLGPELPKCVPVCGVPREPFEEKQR
Assay: Human C1s enzyme assay
Type: biochemical
Conditions: human complement C1s enzyme 1.16 nM, substrate Z-L-Lys-SBzl, A405; read-out: IC50 (Stars)
Summary of the method: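 Serum-purified human C1s (1.16 nM final) preincubated 5 min at room temperature with compound in 50 mM Tris, 1 M NaCl, pH 7.5. Z-L-Lys-SBzl and DTNB added at 100 μM each; A405 recorded every 30 s. IC50 from nonlinear regression of reaction rates versus compound concentration.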

IC50: < 100 nM
Structure (SMILES): O=C(Cn1c(-c2ccccc2)ncc(NC(=O)c2cccc(-c3ccccc3)c2)c1=O)NCc1cc2cnccc2[nH]1 [Compound 165, N-(1-(2-(((1H-pyrrolo[3,2-c]pyridin-2-yl)methyl)amino)-2-oxoethyl)-6-oxo-2-phenyl-1,6-dihydropyrimidin-5-yl)-[1,1′-biphenyl]-3-carboxamide]

IC50: < 100 nM
Structure (SMILES): O=C(Cn1c(-c2ccccc2)ncc(NC(=O)c2cccc(-c3nccs3)c2)c1=O)NCc1cc2cnccc2[nH]1 [Compound 167, N-(1-(2-(((1H-pyrrolo[3,2-c]pyridine-2-yl)methyl)amino)-2-oxoethyl)-6-oxo-2-phenyl-1,6-dihydropyrimidin-5-yl)-3-(thiazol-2-yl)benzamide]

IC50: < 100 nM
Structure (SMILES): O=C(Cn1c(-c2ccccc2)ncc(NC(=O)c2ncc(-c3ccccc3)[nH]2)c1=O)NCc1cc2cnccc2[nH]1 [Compound 169, N-(1-(2-(((1H-pyrrolo[3,2-c]pyridin-2-yl)methyl)amino)-2-oxoethyl)-6-oxo-2-phenyl-1,6-dihydropyrimidin-5-yl)-5-phen-yl-1H-imidazole-2-carbox-amide]

IC50: < 100 nM
Structure (SMILES): O=C(Cn1c(-c2ccccc2)ncc(NC(=O)c2ncc(-c3ccccc3)s2)c1=O)NCc1cc2cnccc2[nH]1 [Compound 170, N-(1-(2-(((1H-pyrrolo[3,2-c]pyridin-2-yl)methyl)amino)-2-oxoethyl)-6-oxo-2-phenyl-1,6-dihydropyrimidin-5-yl)-5-phen-ylthiazole-2-carboxamide]

IC50: < 100 nM
Structure (SMILES): O=C(Cn1c(-c2ccccc2)ncc(NC(=O)c2ncc(-c3ccccc3)o2)c1=O)NCc1cc2cnccc2[nH]1 [Compound 171, N-(1-(2-(((1H-pyrrolo[3,2-c]pyridine-2-yl)methyl)amino)-2-oxoethyl)-6-oxo-2-phenyl-1,6-dihydropyrimidin-5-yl)-5-phenyloxazole-2-carboxamide]

Second part, the molecule before the results:

Structure (SMILES): O=C(Cn1c(-c2ccc(OCCOc3ccc(F)cc3)cc2)ncc(NCc2ccc3oc4ccccc4c3c2)c1=O)NCc1cc2cnccc2[nH]1 [Compound 154, N-((1H-pyrrolo[3,2-c]pyridine-2-yl)methyl)-2-(5-((dibenzo[b,d]furan-2-ylmethyl)amino)-2-(4-(2-(4-fluorophenoxy)ethoxy)phenyl)-6-oxopyrimidin-1(6H)-yl)acetamide]
IC50: < 100 nM

Structure (SMILES): O=C(Cn1c(-c2ccc(OCc3ccccc3)cc2)ncc(NCc2ccc3oc4ccccc4c3c2)c1=O)NCc1cc2cnccc2[nH]1 [Compound 155, N-((1H-pyrrolo[3,2-c]pyridin-2-yl)methyl)-2-(2-(4-(benzyl-oxy)phenyl)-5-((dibenzo[b,d]furan-2-ylmethyl)amino)-6-oxopyrimidin-1(6H)-yl)acet-amide]
IC50: < 100 nM

Structure (SMILES): O=C(Cn1c(-c2ccccc2)ncc(NC(=O)c2ccc(-c3ccc(OC(F)(F)F)cc3)cc2)c1=O)NCc1cc2cnccc2[nH]1 [Compound 164, N-(1-(2-(((1H-pyrrolo[3,2-c]pyridin-2-yl)methyl)amino)-2-oxoethyl)-6-oxo-2-phenyl-1,6-dihydropyrimidin-5-yl)-4′-(trifluoromethoxy)-[1,1′-biphenyl]-4-carboxamide]
IC50: < 100 nM

Structure (SMILES): O=C(Cn1c(-c2ccccc2)ncc(NC(=O)c2ccc(-c3ccccc3)cc2F)c1=O)NCc1cc2cnccc2[nH]1 [Compound 166, N-(1-(2-(((1H-pyrrolo[3,2-c]pyridine-2-yl)methyl)amino)-2-oxoethyl)-6-oxo-2-phenyl-1,6-dihydropyrimidin-5-yl)-3-fluoro-[1,1′-biphenyl]-4-carboxamide]
IC50: < 100 nM

Structure (SMILES): O=C(Cn1c(-c2ccccc2)ncc(NC(=O)c2cnc(-c3ccccc3)[nH]2)c1=O)NCc1cc2cnccc2[nH]1 [Compound 168, N-(1-(2-(((1H-pyrrolo[3,2-c]pyridin-2-yl)methyl)amino)-2-oxoethyl)-6-oxo-2-phenyl-1,6-dihydropyrimidin-5-yl)-2-phenyl-1H-imidazole-5-carbox-amide]
IC50: < 100 nM
